{"source": "patent US20140093525A1", "about": "“COMPOSITIONS AND METHODS OF TREATING OPIOID ADDICTION” (Minneapolis Medical Research Foundation, priority 2012, published 2014)", "key": {"Anti-OXY antibodies": {"system": "Anti-OXY antibodies", "assay": "Competitive ELISA of serum from animals immunized with OXY(Gly)4-KLH, OXY(Gly)4-OVA as coating antigen", "format": "binding, rat", "protocol": "Because plateau values differed, IC50 values for each inhibitor were calculated based on the percentage of inhibition of the optical density of primary antibodies incubated with saline."}, "[1]": {"system": "serum antibodies elicited by OXY-KLH", "assay": "Competition ELISA of serum from rats vaccinated with OXY-KLH"}, "[2]": {"system": "serum antibodies elicited by M-KLH", "assay": "Competition ELISA of serum from rats vaccinated with M-KLH"}, "Male Holtzman rats [3]": {"system": "Male Holtzman rats", "assay": "Example 4: drug distribution studies (OXY in serum and brain)", "format": "in vivo, rat", "conditions": "pre-treatment with 0.003 mg/kg NLTX; 2.25 mg/kg OXY s.c.", "method": "Plasma and brain collected at 33 min after behavioral assessment on the hot plate, and measured using gas chromatography coupled to mass spectrometry."}, "Male Holtzman rats [4]": {"system": "Male Holtzman rats", "assay": "Example 4: thermal nociception (hot plate) after OXY, naltrexone and OXY-KLH vaccine", "format": "in vivo, rat", "protocol": "Male Holtzman rats immunized once every 3 weeks for a total of 3 injections i.p., with 25 μg immunogen in Freund's adjuvant.\nSignificant differences existed between saline pretreated control rats and rats receiving NLTX. For pharmacokinetic experiments NLTX dose of 0.003 mg/kg was chosen based on MPE %. *p<0.05."}, "[5]": {"conditions": "relative to OXY, OXY(Gly)4-OVA as ELISA coating antigen"}}, "note": "Where two headings read alike, the source gives them in different places. Where a SMILES comes first, the peptide text is derived from it. The star is where a group is joined. X1 = COc1ccc2c3c1OC1C(=NOCC(=O)*)CCC4(O)C(C2)N(C)CCC314", "data": [{"molecule": "CCC(=O)C(CC(C)N(C)C)(c1ccccc1)c1ccccc1", "note": "(stereo not drawn) [Methadone]", "values": [{"measurement": "affinity, competition or binding to antibodies (in words)", "setting": "Anti-OXY antibodies", "result": "no measurable binding"}]}, {"molecule": "CC(=O)Oc1ccc2c3c1O[C@H]1[C@@H](OC(C)=O)C=C[C@H]4[C@@H](C2)N(C)CC[C@@]341", "note": "[heroin]", "values": [{"measurement": "relative affinity of antiserum / cross-reactivity (in words)", "setting": "[1]", "result": "low relative affinity"}, {"measurement": "relative affinity of antiserum / cross-reactivity (in words)", "setting": "[2]", "result": "high relative affinities"}]}, {"molecule": "tetraglycine [(Gly)4]", "values": [{"measurement": "relative affinity of antiserum / cross-reactivity (in words)", "setting": "[1]", "result": "negligible cross-reactivity"}, {"measurement": "affinity, competition or binding to antibodies (in words)", "setting": "Anti-OXY antibodies", "result": "no measurable competition or binding"}, {"measurement": "relative affinity of antiserum / cross-reactivity (in words)", "setting": "[2]", "result": "negligible"}]}, {"molecule": "CN1CC[C@]23c4c5ccc(O)c4O[C@H]2[C@@H](O)C=C[C@H]3[C@H]1C5", "note": "[Morphine]", "values": [{"measurement": "Cross-Reactivity (%)", "setting": "Anti-OXY antibodies", "result": 0.1, "unit": "%"}, {"measurement": "affinity, competition or binding to antibodies (in words)", "setting": "Anti-OXY antibodies", "result": "substantially lower"}]}, {"molecule": "COc1ccc2c3c1OC1C(=NOCC(=O)NCC(=O)NCC(=O)NCC(=O)NCC(=O)O)CCC4(O)C(C2)N(C)CCC314", "note": "(stereo not drawn) [OXY(Gly)4] (X1-GGGG-OH)", "values": [{"measurement": "Cross-Reactivity (%)", "setting": "Anti-OXY antibodies", "result": ">100", "unit": "%"}, {"measurement": "IC50", "setting": "Anti-OXY antibodies", "result": 3, "unit": "nM"}, {"measurement": "affinity, competition or binding to antibodies (in words)", "setting": "Anti-OXY antibodies", "result": "high affinities"}]}, {"molecule": "COc1ccc2c3c1O[C@H]1C(=O)CC[C@H]4[C@@H](C2)N(C)CC[C@]314", "note": "[Hydrocodone]", "values": [{"measurement": "relative affinity of antiserum / cross-reactivity (in words)", "setting": "[1]", "result": "relatively low IC50 values"}, {"measurement": "Cross-Reactivity (%)", "setting": "Anti-OXY antibodies", "result": 0.2, "unit": "%"}, {"measurement": "IC50", "setting": "Anti-OXY antibodies", "result": 10000, "unit": "nM"}, {"measurement": "affinity, competition or binding to antibodies (in words)", "setting": "Anti-OXY antibodies", "result": "substantially lower"}, {"measurement": "relative affinity of antiserum / cross-reactivity (in words)", "setting": "[2]", "result": "relatively low IC50 values"}]}, {"molecule": "O=C1CC[C@@]2(O)[C@H]3Cc4ccc(O)c5c4[C@@]2(CCN3CC2CC2)[C@H]1O5", "note": "[Naltrexone]", "values": [{"measurement": "effect on distribution of OXY in immunized rats (in words)", "setting": "Male Holtzman rats [3]", "result": "does not alter the distribution of OXY"}, {"measurement": "affinity, competition or binding to antibodies (in words)", "setting": "Anti-OXY antibodies", "result": "substantially lower"}, {"measurement": "IC50", "setting": "Anti-OXY antibodies; competitive binding, OXY(Gly)4-OVA as ELISA coating antigen", "result": 5000, "unit": "nM"}, {"measurement": "Cross-Reactivity (%)", "setting": "Anti-OXY antibodies; [5]", "result": 0.4, "unit": "%"}, {"measurement": "effect on acute behavioral effects of OXY, thermal nociception (in words)", "setting": "Male Holtzman rats [4]; NLTX 0.001-0.01 mg/kg s.c. 15 min prior to 2.25 mg/kg OXY", "result": "dose-dependently blocks"}, {"measurement": "effect on behavioral tolerance to OXY (in words)", "setting": "Male Holtzman rats [4]; repeated OXY administration", "result": "unable to block the effects of tolerance"}]}, {"molecule": "CN1CC[C@]23c4c5ccc(O)c4O[C@H]2C(=O)CC[C@@]3(O)[C@H]1C5", "note": "[Oxymorphone]", "values": [{"measurement": "relative affinity of antiserum / cross-reactivity (in words)", "setting": "[1]", "result": "high relative affinities"}, {"measurement": "Cross-Reactivity (%)", "setting": "Anti-OXY antibodies", "result": 63, "unit": "%"}, {"measurement": "IC50", "setting": "Anti-OXY antibodies", "result": 30, "unit": "nM"}]}, {"molecule": "C=CCN1CC[C@]23c4c5ccc(O)c4O[C@H]2C(=O)CC[C@@]3(O)[C@H]1C5", "note": "[Naloxone]", "values": [{"measurement": "affinity, competition or binding to antibodies (in words)", "setting": "Anti-OXY antibodies; competitive ELISA, serum from OXY(Gly)4-KLH immunized animals", "result": "substantially lower"}, {"measurement": "Cross-Reactivity (%)", "setting": "Anti-OXY antibodies; [5]", "result": 1.2, "unit": "%"}]}, {"molecule": "COc1ccc2c3c1O[C@H]1C(=O)CC[C@@]4(O)[C@@H](C2)N(C)CC[C@]314", "note": "[OXY, Oxycodone]", "values": [{"measurement": "Cross-Reactivity (%)", "setting": "Anti-OXY antibodies", "result": 100, "unit": "%"}, {"measurement": "IC50", "setting": "Anti-OXY antibodies", "result": 17, "unit": "nM"}, {"measurement": "affinity, competition or binding to antibodies (in words)", "setting": "Anti-OXY antibodies", "result": "high affinities"}]}]}
